Measured values reported in patent publication US20240099214A1, “PLANT DEFENCE GENE EXPRESSION” (UPL Corporation Limited, priority 2021, published 2024).

Legend:
[1] = system: E3 Ubiquitin-protein ligase march3 (gene 2, Solyc01g079530.2); test: qRT-PCR expression of gene 2 in tomato leaves; type: in vivo, Tomato ecotype corbarino; set-up: key: relative expression normalized to a-tubulin housekeeping gene
Experimental: (§1) Tomato ecotype “corbarino” reported to be susceptible to TSWV infection was used in the experiment. Plants were grown in pots in a climatic chamber with a photoperiod of 16/8 hour at 25° C.
(§2) The viral strain (TSWV PV PV-0393) was utilized in the experiment. The virus was mechanically inoculated and propagated on tomato “corbarino”. The inoculum was prepared in an ice-cooled mortar grounding 1 gr of infected tomato tissue in 10 ml of Na-phosphate buffer 0.01M. The fresh prepared inoculum was stored in ice before use. Tomato plants at BBCH16 were dusted with Carborundum 600 mesh and selected leaves were rubbed with some droplets of inoculum. After 5 min. plants were sprayed with sterile water to remove the excess of inoculum and preserve the cell turgor.
(§3) Four treatments were compared: i) Mock inoculated; ii) TSWV; iii) 0.25% Laminarin; iv) 0.25% Laminarin+TSWV. In the last treatment the virus was inoculated 24 hrs after the laminarin application.
(§4) Total RNA was extracted from systemic infected tomato leaves by using the Quick-RNA Plant Kit (Zymo Research) following the manufacturer instructions. The extractions were carried out using three plants after 12 h, 24 h, 48 h, 72 h, 7 days after inoculation. Leaves were instantly frozen in liquid nitrogen after cutting to avoid any deterioration of the sample as well as any defense reaction. The RNA concentration was quantified by measuring the absorbance at 260 nm using a Nanodrop 2000 (Thermofisher). The purity of all of the RNA samples was assessed at an absorbance ratio of OD260/280 and OD260/230, while its structural integrity was checked by agarose gel electrophoresis. Only high-quality RNA with OD 260/280 and OD 260/230>2 was used for subsequent steps. Single-stranded cDNA was synthesized from 1 μg of total RNA using an iScript™ Select cDNA Synthesis Kit and random hexamers as primers (Bio-Rad, Milan, Italy), according to the manufacturer's instructions. Three biological replicates were created from the 3 leaves collected to test 15 genes. Alpha tubulin was used as reference gene.
(§5) qPCR reactions were performed with BioRad (Applied Biosystems, Foster City, CA, USA) using SYBR R Green. Each reaction was performed in 20 μl containing 10 μl of 2× Power SYBR Green PCR Master Mix (Life Technologies), 0.2-0.3 μM primers and cDNA samples diluted 1:20. Each qPCR reaction was performed in triplicate. Reactions were run using the cycling parameter described previously (Reid et al., 2006) and the qPCR data were analyzed by the Ct method (Pfaffl, 2001). In order to analyze the qPCR data, a-tubulin gene was used as housekeeping to determine the relative expression level of the other genes analyzed in this work. For the determination of qPCR efficiency of each primer pairs, a standard curve was performed using the following cDNA dilutions: 1:4, 1:16, 1:64; 1:256 and 1:1024. Every measurement was made in triplicate. The corresponding qPCR efficiencies (E) were calculated for every primer pair with the software 7300 System SDS software (Applied Biosystems, Foster City, CA, USA) according to the equation E=(10−1/slope−1)×100 (Rutledge and Stewart, 2008).
(§6) The significance of the differences between the gene expressions levels were compared by one-way ANOVA (p=0.01) and the means were separated by Tukey post-hoc test using SPSS ver.26 ([…]).

[2] = system: Nbs-Irr resistance protein (gene 3, Solyc05g009760.1); test: qRT-PCR expression of gene 3 in tomato leaves; type: in vivo, Tomato ecotype corbarino; set-up: key: relative expression normalized to a-tubulin housekeeping gene
Experimental: as §1, §2, §3, §4, §5, §6

laminarin
RQ1 ([1]; 12 hr, Laminarin + virus): 13.056 | RQ2 ([1]; 12 hr, Laminarin + virus): 23.403 | RQ3 ([1]; 12 hr, Laminarin + virus): 12.079 | RQ mean ([1]; 12 hr, Laminarin + virus): 16.179 | RQ1 ([1]; 12 hr, Laminarin alone): 13.140 | RQ2 ([1]; 12 hr, Laminarin alone): 19.586 | RQ3 ([1]; 12 hr, Laminarin alone): 10.706 | RQ mean ([1]; 12 hr, Laminarin alone): 14.477 | RQ1 ([1]; 24 hr, Laminarin + virus): 11.700 | RQ2 ([1]; 24 hr, Laminarin + virus): 13.596 | RQ3 ([1]; 24 hr, Laminarin + virus): 12.341 | RQ mean ([1]; 24 hr, Laminarin + virus): 12.546 | RQ1 ([1]; 24 hr, Laminarin alone): 13.152 | RQ2 ([1]; 24 hr, Laminarin alone): 13.329 | RQ3 ([1]; 24 hr, Laminarin alone): 14.033 | RQ mean ([1]; 24 hr, Laminarin alone): 13.505 | RQ1 ([1]; 48 hr, Laminarin + virus): 24.083 | RQ2 ([1]; 48 hr, Laminarin + virus): 18.519 | RQ3 ([1]; 48 hr, Laminarin + virus): 21.352 | RQ mean ([1]; 48 hr, Laminarin + virus): 21.318 | RQ1 ([1]; 48 hr, Laminarin alone): 27.467 | RQ2 ([1]; 48 hr, Laminarin alone): 17.321 | RQ3 ([1]; 48 hr, Laminarin alone): 23.298 | RQ mean ([1]; 48 hr, Laminarin alone): 22.695 | RQ1 ([1]; 72 hr, Laminarin + virus): 28.726 | RQ2 ([1]; 72 hr, Laminarin + virus): 29.558 | RQ3 ([1]; 72 hr, Laminarin + virus): 37.336 | RQ mean ([1]; 72 hr, Laminarin + virus): 31.873 | RQ1 ([1]; 72 hr, Laminarin alone): 29.447 | RQ2 ([1]; 72 hr, Laminarin alone): 23.000 | RQ3 ([1]; 72 hr, Laminarin alone): 53.007 | RQ mean ([1]; 72 hr, Laminarin alone): 35.151 | RQ1 ([2]; 12 hr, Laminarin + virus): 11.935 | RQ2 ([2]; 12 hr, Laminarin + virus): 12.286 | RQ3 ([2]; 12 hr, Laminarin + virus): 0.9487 | RQ mean ([2]; 12 hr, Laminarin + virus): 11.236 | RQ1 ([2]; 12 hr, Laminarin alone): 10.545 | RQ2 ([2]; 12 hr, Laminarin alone): 10.498 | RQ3 ([2]; 12 hr, Laminarin alone): 0.8329 | RQ mean ([2]; 12 hr, Laminarin alone): 0.9791 | RQ1 ([2]; 24 hr, Laminarin + virus): 11.167 | RQ2 ([2]; 24 hr, Laminarin + virus): 10.509 | RQ3 ([2]; 24 hr, Laminarin + virus): 13.936 | RQ mean ([2]; 24 hr, Laminarin + virus): 11.871 | RQ1 ([2]; 24 hr, Laminarin alone): 12.229 | RQ2 ([2]; 24 hr, Laminarin alone): 13.976 | RQ3 ([2]; 24 hr, Laminarin alone): 11.514 | RQ mean ([2]; 24 hr, Laminarin alone): 12.573 | RQ1 ([2]; 48 hr, Laminarin + virus): 12.976 | RQ2 ([2]; 48 hr, Laminarin + virus): 26.960 | RQ3 ([2]; 48 hr, Laminarin + virus): 15.208 | RQ mean ([2]; 48 hr, Laminarin + virus): 18.381 | RQ1 ([2]; 48 hr, Laminarin alone): 27.419 | RQ2 ([2]; 48 hr, Laminarin alone): 26.255 | RQ3 ([2]; 48 hr, Laminarin alone): 14.098 | RQ mean ([2]; 48 hr, Laminarin alone): 22.591 | RQ1 ([2]; 72 hr, Laminarin + virus): 47.747 | RQ2 ([2]; 72 hr, Laminarin + virus): 48.776 | RQ3 ([2]; 72 hr, Laminarin + virus): 16.860 | RQ mean ([2]; 72 hr, Laminarin + virus): 37.794 | RQ1 ([2]; 72 hr, Laminarin alone): 19.725 | RQ2 ([2]; 72 hr, Laminarin alone): 58.615 | RQ3 ([2]; 72 hr, Laminarin alone): 21.699 | RQ mean ([2]; 72 hr, Laminarin alone): 33.346
